Legend:
wheat = assay: Test C preemergence; type: in vivo, Triticum aestivum
How it was run: (§1)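 Scores of 0 (no effect) to 100 (complete control) were assigned by eye after 13–15 days, comparing treated pots with controls. Soil-applied (preemergence) treatments went onto seeds in loam and sand; foliar (postemergence) treatments onto 1- to 4-leaf plants in peat medium.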

soybean = assay: Test C preemergence; type: in vivo, Glycine max
How it was run: as §1

chickweed = assay: Test C postemergence; type: in vivo, Stellaria media
How it was run: as §1

crabgrass, large [1] = assay: Test A postemergence; type: in vivo, Digitaria sanguinalis
How it was run: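 Greenhouse test in loam soil/sand blend; compounds formulated in non-phytotoxic solvent with surfactant, applied as preemergence directed soil spray or postemergence to plants 2–10 cm tall at one- to two-leaf stage. Injury rated visually versus untreated controls after approximately 10 days on a 0 (no effect) to 100 (complete control) scale.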

morningglory = assay: Test C postemergence; type: in vivo, Ipomoea coccinea
How it was run: as §1

blackgrass = assay: Test C postemergence; type: in vivo, Alopecurus myosuroides
How it was run: as §1

barnyardgrass = assay: Test C preemergence; type: in vivo, Echinochloa crus-galli
How it was run: as §1

velvetleaf [2] = assay: Test C postemergence; type: in vivo, Abutilon theophrasti
How it was run: as §1

oilseed rape = assay: Test C preemergence; type: in vivo, Brassica napus
How it was run: as §1

lambsquarters = assay: Test C preemergence; type: in vivo, Chenopodium album
How it was run: as §1

crabgrass, large [3] = assay: Test C postemergence; type: in vivo, Digitaria sanguinalis
How it was run: as §1

johnsongrass [4] = assay: Test C postemergence; type: in vivo, Sorghum halepense
How it was run: as §1

galium = assay: Test C preemergence; type: in vivo, Galium aparine
How it was run: as §1

velvetleaf [5] = assay: Test C preemergence; type: in vivo, Abutilon theophrasti
How it was run: as §1

johnsongrass [6] = assay: Test C preemergence; type: in vivo, Sorghum halepense
How it was run: as §1

[7] = preemergence, 31 g ai/ha, visual rating, scale 0 to 100 (0 no effect, 100 complete control), 13 to 15 days
[8] = preemergence, 62 g ai/ha, 13 to 15 days, scale 0 to 100, 0 = no effect, 100 = complete control
[9] = preemergence, 125 g ai/ha, scale 0 to 100, 0 is no effect, 100 is complete control
[10] = Postemergence, 31 g ai/ha, visually evaluated after 13 to 15 days
[11] = postemergence, 62 g ai/ha, scale 0 to 100
[12] = postemergence, 250 g ai/ha, scale 0 to 100 (0 no effect, 100 complete control)
[13] = postemergence, 125 g ai/ha, scale 0 to 100, 0 no effect, 100 complete control

CCOc1cc(C(=O)NCC(F)(F)F)nn1Cc1ccnc(C(F)(F)F)c1 [Compound 104]
Plant response rating (scale of 0 to 100), Wheat (wheat; Preemergence, 250 g ai/ha): 90 | Wheat plant response rating (wheat; [7]): 40 | Plant response rating, Wheat (wheat; [8]): 60 | Wheat plant response rating (wheat; [9]): 90 | Plant response rating (scale of 0 to 100), Soybean (soybean; Preemergence, 250 g ai/ha): 98 | Soybean plant response rating (soybean; [7]): 85 | Plant response rating, Soybean (soybean; [8]): 95 | Soybean plant response rating (soybean; [9]): 98 | Plant response rating (scale of 0 to 100 where 0 is no effect and 100 is complete control), Chickweed (chickweed; [10]): 55 | Chickweed plant response rating (chickweed; [11]): 70 | Plant response rating, Chickweed (chickweed; [12]): 90 | Plant response rating, Chickweed (chickweed; [13]): 80 | Crabgrass, Large plant response rating (crabgrass, large [1]; Postemergence, 500 g ai/ha, visual rating after approx. 10 days, 0 to 100 scale (0 no effect, 100 complete control)): 90 | Crabgrass, Large plant response rating (crabgrass, large [1]; postemergence, 125 g ai/ha, about 10 days, visual rating on 0 to 100 scale (0 no effect, 100 complete control)): 90 | Plant response rating (scale of 0 to 100 where 0 is no effect and 100 is complete control), Morningglory (morningglory; [10]): 0 | Morningglory plant response rating (morningglory; [11]): 80 | Plant response rating, Morningglory (morningglory; [12]): 98 | Plant response rating, Morningglory (morningglory; [13]): 95 | Plant response rating (scale of 0 to 100 where 0 is no effect and 100 is complete control), Blackgrass (blackgrass; [10]): 10 | Blackgrass plant response rating (blackgrass; [11]): 10 | Plant response rating, Blackgrass (blackgrass; [12]): 80 | Plant response rating, Blackgrass (blackgrass; [13]): 40 | Plant response rating (scale of 0 to 100), Barnyardgrass (barnyardgrass; Preemergence, 250 g ai/ha): 100 | Barnyardgrass plant response rating (barnyardgrass; preemergence, 31 g ai/ha, scale 0 to 100 (0 no effect, 100 complete control), 13 to 15 days): 100 | Plant response rating, Barnyardgrass (barnyardgrass; [8]): 100 | Barnyardgrass plant response rating (barnyardgrass; [9]): 100 | Plant response rating (scale of 0 to 100 where 0 is no effect and 100 is complete control), Velvetleaf (velvetleaf [2]; [10]): 25 | Velvetleaf plant response rating (velvetleaf [2]; [11]): 40 | Plant response rating, Velvetleaf (velvetleaf [2]; [12]): 80 | Plant response rating, Velvetleaf (velvetleaf [2]; [13]): 65 | Plant response rating (scale of 0 to 100), Oilseed Rape (oilseed rape; Preemergence, 250 g ai/ha): 100 | Oilseed Rape plant response rating (oilseed rape; [7]): 100 | Plant response rating, Oilseed Rape (oilseed rape; [8]): 100 | Oilseed Rape plant response rating (oilseed rape; [9]): 100 | Plant response rating (scale of 0 to 100), Lambsquarters (lambsquarters; Preemergence, 250 g ai/ha): 100 | Lambsquarters plant response rating (lambsquarters; [7]): 98 | Plant response rating, Lambsquarters (lambsquarters; [8]): 98 | Lambsquarters plant response rating (lambsquarters; [9]): 100 | Plant response rating (scale of 0 to 100 where 0 is no effect and 100 is complete control), Crabgrass, Large (crabgrass, large [3]; [10]): 5 | Crabgrass, Large plant response rating (crabgrass, large [3]; [11]): 70 | Plant response rating, Crabgrass, Large (crabgrass, large [3]; [12]): 95 | Plant response rating, Crabgrass, Large (crabgrass, large [3]; [13]): 75 | Plant response rating (scale of 0 to 100 where 0 is no effect and 100 is complete control), Johnsongrass (johnsongrass [4]; [10]): 5 | Johnsongrass plant response rating (johnsongrass [4]; [11]): 15 | Plant response rating, Johnsongrass (johnsongrass [4]; [12]): 85 | Plant response rating, Johnsongrass (johnsongrass [4]; [13]): 40 | Plant response rating (scale of 0 to 100), Galium (galium; Preemergence, 250 g ai/ha): 100 | Galium plant response rating (galium; [7]): 90 | Plant response rating, Galium (galium; [8]): 98 | Galium plant response rating (galium; [9]): 100 | Plant response rating (scale of 0 to 100), Velvetleaf (velvetleaf [5]; Preemergence, 250 g ai/ha): 100 | Velvetleaf plant response rating (velvetleaf [5]; [7]): 100 | Plant response rating, Velvetleaf (velvetleaf [5]; [8]): 100 | Velvetleaf plant response rating (velvetleaf [5]; [9]): 100 | Plant response rating (scale of 0 to 100), Johnsongrass (johnsongrass [6]; Preemergence, 250 g ai/ha): 100 | Johnsongrass plant response rating (johnsongrass [6]; [7]): 90 | Plant response rating, Johnsongrass (johnsongrass [6]; [8]): 100 | Johnsongrass plant response rating (johnsongrass [6]; [9]): 100

— patent US20150105252A1, “SUBSTITUTED PYRAZOLES AS HERBICIDES” (E I DU PONT DE NEMOURS AND COMPANY, priority 2013, published 2015)
